Reference: publication PMC7756782, “Rational Design of Azastatin as a Potential ADC Payload with Reduced Bystander Killing” (Chemmedchem, 2020)
Structures can show the parent of a compound that is named as a salt. Non-standard residues stand in square brackets, D forms with d. Residues, ends and D or L forms follow the SMILES beside them. Dolaproine = CO[C@@H]([C@@H]1CCCN1)[C@@H](C)C(=O)O; Dil = CC[C@H](C)[C@H](NC)[C@@H](CC(=O)O)OC; NMeV = CN[C@H](C(=O)O)C(C)C

Experiments:
[1] = test system: HepG2 cells; experiment: cells; type: cell-based, human; settings: FMCA, 72 h incubation, 37 °C, 384-well, 1000 cells/well, mean and 95 % confidence interval, three independent experiments
Description: (§1) Three fundamentally different cell lines were chosen for the assessment of cytotoxicity: HepG2 cells, which derive from a human hepatoblastoma; ^[43] HCT116 cells, a common model for the study of metastatic colorectal carcinoma;[ ^44 , ^45 ] and RPMI 8226 cells, which originate from multiple myeloma. ^[46]
(§2) The cells, upon overnight cultivation, were treated with MMAE (5), MMAF (6), azastatin‐OMe (7), N‐ethyl azastatin‐OMe (28), N‐Cbz azastatin‐OMe (27) or doxorubicin[ ^47 , ^48 ] at concentrations ranging from 100 μM to 10 pM and after 72 hours of incubation, the survival index relative to control was determined by The Fluorometric Microculture Cytotoxicity Assay (FMCA). ^[49] Based upon the concentration dependent proportion of surviving cells, the half maximal inhibitory concentration (IC50) of each compound was calculated (see Table 1).
(§3) MMAE and MMAF were purchased from Combi‐Blocks (US). Doxorubicin hydrochloride was obtained from Sigma‐Aldrich/Merck (Germany). HepG2 cells (human hepatocellular carcinoma cells, ATCC), were grown in Eagle's Minimum Essential Medium (ATCC). RPMI 8226 (multiple myeloma cells, ATCC) were grown in complete RPMI medium (ATCC). HCT116 cells (colon carcinoma cells, Anticancer Inc.) were cultured in McCoy′s 5 A Modified Medium (Sigma‐Aldrich). All media were supplemented with 10 % foetal bovine serum, penicillin/streptomycin (100 U/100 μg/mL) and 2 mM L‐glutamine. Cells were seeded in 384‐well assay plates at a density of 1000 cells/well. The cells were incubated over night at 37 °C and test compounds were added, followed incubation for an additional 72 h at 37 °C. The fraction of surviving cells was analysed by a fluorometric microculture cytotoxicity assay, based on hydrolysis of fluorescein diacetate to fluorescein by cells with intact plasma membranes, as recently described. ^[49] IC50‐values were calculated from three independent experiments (see SI, mean±SEM). All tested concentrations were assessed in multiple wells (n=2‐4) in each experiment. The IC50‐values were determined with nonlinear regression analysis using GraphPad Prism 8 Software Package (US).

[2] = test system: HCT116 cells; experiment: cells; type: cell-based; settings: FMCA, 72 h incubation, 37 °C, 384-well, 1000 cells/well, mean and 95 % confidence interval, three independent experiments
Description: as §1, §2, §3

[3] = test system: RPMI 8226 cells; experiment: cells; type: cell-based; settings: FMCA, 72 h incubation, 37 °C, 384-well, 1000 cells/well, mean and 95 % confidence interval, three independent experiments
Description: as §1, §2, §3

[4] = test system: HepG2, HCT116 and RPMI 8226 cells; experiment: FMCA cytotoxicity, span over all three tested cell lines; type: cell-based; settings: 72 h; for IC50: lowest to highest mean IC50 in HepG2, HCT116, RPMI 8226, read-out: IC50 range over the three cell lines
Description: as §1, §2, §3

`CC[C@H](C)[C@@H]([C@@H](CC(=O)N1C[C@@H](N)C[C@H]1[C@H](OC)[C@@H](C)C(=O)N[C@@H](Cc1ccccc1)C(=O)OC)OC)N(C)C(=O)[C@@H](NC(=O)[C@H](C(C)C)N(C)C)C(C)C` [Aza‐OMe, 7, Azastatin methyl ester] gave an IC50 [1] of 20 nM, an IC50 [2] of 170 nM and an IC50 [3] of 9.8 nM. For the same compound, the IC50 [4] was 9.8 to 170 nM.
`CC[C@H](C)[C@@H]([C@@H](CC(=O)N1C[C@@H](NC(=O)OCc2ccccc2)C[C@H]1[C@H](OC)[C@@H](C)C(=O)N[C@@H](Cc1ccccc1)C(=O)OC)OC)N(C)C(=O)[C@@H](NC(=O)[C@H](C(C)C)N(C)C)C(C)C` [Cbz‐Aza‐OMe, 27, Cbz‐azastatin methyl ester] showed an IC50 [1] of 0.13 nM, an IC50 [2] of 3 nM and an IC50 [3] of 0.15 nM. The IC50 [4] was 0.13 to 3 nM.
For `COc1cccc2c1C(=O)c1c(O)c3c(c(O)c1C2=O)C[C@@](O)(C(=O)CO)C[C@@H]3O[C@H]1C[C@H](N)[C@H](O)[C@H](C)O1` [Doxorubicin, Doxorubicin hydrochloride, reference compound], the IC50 ([1]; Homo sapiens, HepG2) was 400 nM, the IC50 ([2]; Homo sapiens, HCT-116) was 440 nM and the IC50 ([3]; Homo sapiens, RPMI-8226) was 49 nM.
For `CC[C@H](C)[C@@H]([C@@H](CC(=O)N1CCC[C@H]1[C@H](OC)[C@@H](C)C(=O)N[C@@H](Cc1ccccc1)C(=O)O)OC)N(C)C(=O)[C@@H](NC(=O)[C@@H](NC)C(C)C)C(C)C` [MMAF, 6, monomethylauristatin F, reference compound] (H-[NMeV]V[Dil][Dolaproine]F-OH), the “fold less potent than MMAE (5) in each of the cell lines” value ([4]; ratio of IC50 values) was “more than 100 fold”.
For `CCN[C@H]1C[C@@H]([C@H](OC)[C@@H](C)C(=O)N[C@@H](Cc2ccccc2)C(=O)OC)N(C(=O)C[C@@H](OC)[C@H]([C@@H](C)CC)N(C)C(=O)[C@@H](NC(=O)[C@H](C(C)C)N(C)C)C(C)C)C1` [N‐Et Aza‐OMe, 28, N‐ethyl azastatin methyl ester], the IC50 [1] was 11 nM, the IC50 [2] was 100 nM and the IC50 [3] was 4.8 nM. For the same compound, the IC50 [4] was 4.8 to 100 nM.
